Molecules are shown by their SMILES. In brackets after ≈: the same amount, converted by molar mass.

Seven compounds from ChEMBL document CHEMBL1158858, “(2,4-cis and trans)-gigantecinone and 4-deoxygigantecin, bioactive nonadjacent bis-tetrahydrofuran annonaceous acetogenins, from Goniothalamus giganteus” (J Nat Prod, 1997) can be followed below.

One data set has as its system MIA PaCa-2. Description: Cytotoxicity against human MIAPaCa2 cells after 7 days by MTT assay. The data set is classed as functional. To be noted: MIA PaCa-2, 168 h, read-out: ED50 (the source's name). Background: Formazan colour is commonly taken as a measure of viable cells.
The subject of another data set is HT-29. Description: Cytotoxicity against human HT29 cells after 7 days by MTT assay. Format: functional. To be noted: HT-29, 168 h, read-out: ED50 (the source's name).
The subject of another data set is A498. Briefly: Cytotoxicity against human A498 cells after 7 days by MTT assay. To be noted: A498, 168 h, read-out: ED50 (the source's name). Format: functional.
The subject of a further data set is Aedes aegypti. Description: Insecticidal activity against yellow fever mosquito larvae by microtiter plate assay. The data set is classed as functional.
Another data set relates to MCF7. Description: Cytotoxicity against human MCF7 cells after 7 days by MTT assay. The data set is classed as functional. The conditions noted are these: MCF7, 168 h, read-out: ED50 (the source's name).
In the next data set the test system is Artemia. Description: (§1) Toxicity to brine shrimp. Format: organism-based. To be noted: in vivo.
The test system of the next data set is A549. Briefly: Cytotoxicity against human A549 cells after 7 days by MTT assay. Format: functional. To be noted: for EC50: Homo sapiens, A549, 168 h, read-out: ED50 (the source's name).
The next data set has as its system PC-3. Briefly: Cytotoxicity against human PC3 cells after 7 days by MTT assay. The conditions noted are these: PC-3, 168 h, read-out: ED50 (the source's name). The data set is classed as functional.
Data set [1] can be described thus: as §1. The data set is classed as organism-based. The conditions noted are these: artemia, in vivo.

As usually defined, the LC50 is the concentration that kills 50% of the test population. The low end stands for a more lethal substance, the high end for a less lethal substance. Regarding `CCCCCCCCCCCC[C@@H](O)[C@H]1CC[C@H]([C@H](O)CC[C@H](O)[C@@H]2CC[C@@H](CCCCCCCC3=C[C@H](C)OC3=O)O2)O1`, the EC50 in the data set on MIA PaCa-2 worked out at 0.393 µg/mL (≈ 0.631 µM); with HT-29, 0.143 µg/mL (≈ 0.23 µM); in the data set with A498, 0.328 µg/mL (≈ 0.527 µM); with MCF7, 1 µg/mL (≈ 1.61 µM); in the data set with A549, 0.131 µg/mL (≈ 0.21 µM); in the data set on PC-3, 0.15 µg/mL (≈ 0.241 µM). In addition, the LC50 worked out at 0.68 µg/mL (≈ 1.09 µM) in the data set with Aedes aegypti and 0.04 ppm in the data set with Artemia.

As for `CCCCCCCCCCCC[C@@H](O)[C@H]1CC[C@H]([C@H]2CC[C@@H]([C@@H]3CC[C@@H](CCCCCCCC4=C[C@H](C)OC4=O)O3)OCO2)O1`, the EC50 turned out to be 0.217 µg/mL (≈ 0.342 µM) in the data set with MIA PaCa-2; 0.183 µg/mL (≈ 0.288 µM) in the data set on HT-29; 0.162 µg/mL (≈ 0.255 µM) with A498; 0.495 µg/mL (≈ 0.78 µM) in the data set on MCF7; 0.0382 µg/mL (≈ 0.0602 µM) in the data set with A549; 0.132 µg/mL (≈ 0.208 µM) in the data set on PC-3.

`CCCCCCCCCCCC[C@@H](O)[C@H]1CC[C@H]([C@H](O)CC[C@H](O)[C@@H]2CC[C@@H](CCCCC[C@@H]3CC(CC(C)=O)C(=O)O3)O2)O1` (some centres undefined): the EC50 in the data set on MIA PaCa-2 is above 1 µg/mL; in the data set on HT-29, above 1 µg/mL; in the data set with A498, 0.212 µg/mL (≈ 0.332 µM); in the data set with MCF7 it was above 1 µg/mL; in the data set on A549, 0.214 µg/mL (≈ 0.335 µM); with PC-3 it was 0.00108 µg/mL (≈ 0.00169 µM). In addition, the LC50 turned out to be 0.27 µg/mL (≈ 0.423 µM) in the data set with Aedes aegypti and 3.27 ppm in the data set on Artemia.

Turning to `CCCCCCCCCCCC[C@@H](O)[C@H]1CC[C@H]([C@H]2CC[C@@H]([C@@H]3CC[C@@H](CCCCC[C@@H]4CC(CC(C)=O)C(=O)O4)O3)OCO2)O1` (mixture of isomers), the EC50 with MIA PaCa-2 was above 1 µg/mL; in the data set with HT-29, above 1 µg/mL; in the data set with A498, 0.271 µg/mL; in the data set on MCF7, above 1 µg/mL; in the data set with A549 it was 0.252 µg/mL; in the data set on PC-3, 0.00306 µg/mL.

Consider `COc1cccc2c1C(=O)c1c(O)c3c(c(O)c1C2=O)C[C@@](O)(C(=O)CO)C[C@@H]3O[C@H]1C[C@H](N)[C@H](O)[C@H](C)O1` [DOXORUBICIN], for which the EC50 in the data set on MIA PaCa-2 was determined as 0.00142 µg/mL (≈ 0.00261 µM); with HT-29, 0.725 µg/mL (≈ 1.33 µM); in the data set on A498 it was 0.113 µg/mL (≈ 0.208 µM); in the data set on MCF7 it was 0.369 µg/mL (≈ 0.679 µM); in the data set with A549, 0.00393 µg/mL (≈ 0.00723 µM); with PC-3, 0.0146 µg/mL (≈ 0.0269 µM).

In the case of `CCCCCCCCCCCC[C@@H](O)[C@H]1CC[C@H]([C@H](O)CC[C@H](O)[C@@H]2CC[C@@H](CCCCC[C@@H](O)CC3=C[C@H](C)OC3=O)O2)O1` [GIGANTECIN], the EC50 stood at 0.268 µg/mL (≈ 0.419 µM) with HT-29 and 0.411 µg/mL (≈ 0.643 µM) in the data set with MCF7. The LC50 in data set [1] worked out at 222 µg/mL (≈ 347 µM). In the data set on A549, this compound had an ED50 of 2.19 ×10⁻⁷ ug/ml.

In turn, `C=C(C)[C@H]1Cc2c(ccc3c2O[C@@H]2COc4cc(OC)c(OC)cc4[C@@H]2C3=O)O1` [ROTENONE] returned an LC50 in the data set on Aedes aegypti of 0.75 µg/mL (≈ 1.9 µM).
